# Data: US9732065B2, “Cyclic aminomethyl pyrimidine derivative” (Sumitomo Dainippon Pharma Co., Ltd., priority 2013, dated 2017)
# Experiments:
# [1] = system: rat after prenatal exposure to valproic acid; experiment: Social impairments in rat after prenatal exposure to valproic acid, three-chamber test; type: in vivo; conditions: oral, 1 mg/kg
# Description: A rat exposed to valproic acid on the 12.5 days of fetal life has been widely used as an autistic rat model with high validity. It is known that the rat has a social cognitive disorder through the three-chamber test which is a test for evaluating sociability. Thus, the rat was pretreated with the present compound to evaluate the improved effect of the present compound on social cognition. In this study, a sociability cage (600 mm×400 mm×220 mm, Muromachi Kikai Co., Ltd.) was used. Specifically, a 3-week-old rat after prenatal exposure to valproic acid received the oral administration of the present compound, and the time that the rat stayed in close to another rat side or a novel object was measured for 10 minutes from 30 minutes after the administration. The ratio of the time for another rat side to the time for a novel object that is defined as 100% was calculated to evaluate the improvement ratio (%) of the present compound on the basis of the result of the vehicle-treated group. The improvement ratio after the oral administration of the compound of Example 5 (1 mg/kg) was 27.6%.
# [2] = target: T1, human adrenergic α1A receptor (Homo sapiens, UniProt P35348); experiment: Agonistic/antagonistic activity in G protein dependent pathway (aequorin intracellular calcium luminescence), α1A; type: cell-based; conditions: for Maximal activity on each receptor (%): α1A: 10 μM adrenaline = 100%; for inhibition at 0.1 µM / inhibition at 1 µM: against 10 μM endogenous ligand, read-out: Inhibitory activity on each receptor (%): α1A
# T1 construct: expressed in transfected cells; host or cells: CHO-K1 or HEK293 cells
# T1 sequence (P35348 1-466): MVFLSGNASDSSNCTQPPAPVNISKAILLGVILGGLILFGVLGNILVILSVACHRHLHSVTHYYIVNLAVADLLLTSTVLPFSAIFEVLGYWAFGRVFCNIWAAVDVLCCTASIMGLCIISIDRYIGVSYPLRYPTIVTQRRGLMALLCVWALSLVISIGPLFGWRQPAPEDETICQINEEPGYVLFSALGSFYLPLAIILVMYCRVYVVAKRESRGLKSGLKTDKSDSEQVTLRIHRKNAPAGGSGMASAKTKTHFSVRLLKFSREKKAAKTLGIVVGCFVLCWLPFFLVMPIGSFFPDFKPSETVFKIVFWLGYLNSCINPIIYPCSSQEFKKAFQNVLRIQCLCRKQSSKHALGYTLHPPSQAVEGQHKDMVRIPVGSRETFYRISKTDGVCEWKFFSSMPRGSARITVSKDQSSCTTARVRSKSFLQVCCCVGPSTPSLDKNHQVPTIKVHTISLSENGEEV
# Description: Plasmids encoding each receptor, aequorin and Gα16 were prepared, and the plasmids were transfected into CHO cells (Chinese Hamster Ovary cells) or HEK293 cells (Human Embryonic Kidney 293 cells) to prepare expressing cell lines.
# The agonistic or antagonistic activity of the present compound in the G protein dependent pathway was evaluated on the basis of intracellular calcium levels as follows. CHO-K1 or HEK293 cell lines transfected with D2, D4, α1A, or α2A receptor genes were seeded in a 384-well plate, and incubated in a CO2 incubator at 37° C. for 24 hours, and then a solution of the present compound in DMSO was added into cells preloaded with coelenterazine to measure the change in luminescent signals with a FDSS (Hamamatsu Photonics K.K.). […] The agonistic activity of the present compound was calculated according to the measured luminescent signals, as the maximal activity (Emax) of the present compound. On the other hand, the antagonistic activity of the present compound was calculated according to the luminescent signals in wells with 10 μM of an endogenous ligand alone defined as 100%, as the inhibitory activity of the present compound to an endogenous ligand. EC50 value was calculated as the concentration of the present compound required to achieve a 50% response, and IC50 was calculated as the concentration of the present compound required to achieve a 50% inhibition of the Emax of an endogenous ligand.
# [3] = system: SHR rat; experiment: Inattention in SHR rat, Y-shaped maze test; type: in vivo; conditions: oral, 1 mg/kg
# Description: It is known that a SHR rat has a lower spontaneous alternation behavior ratio than a WKY rat which is a background animal through the Y-shaped maze test. Thus, the SHR rat was pretreated with the present compound to evaluate the pharmacological effect of the present compound on attention function. Specifically, a 4-week-old SHR rat received the oral administration of the present compound, and a spontaneous alternation behavior ratio in the rat was measured for 8 minutes from 30 minutes after the administration. The improved spontaneous alternation behavior ratio (%) was calculated as a numerical value on the basis of the spontaneous alternation behavior ratio in the vehicle administration group. In this study, a Y-shaped maze device (black acrylic: 450 mm×100 mm×350 mm, Horikawa Manufacturing Co., Ltd.) was used.
smiles,measurement,setting,value
"Cc1ncc(CN2CCC(c3ccccn3)CC2)c(N)n1 [Example 5, 2-Methyl-5-[4-(pyridin-2-yl)piperidin-1-ylmethyl]pyrimidin-4-amine]",time that the rat stayed in close to another rat side,[1],significantly increased
same,improvement ratio (%),"[1]; time for another rat side vs novel object, relative to vehicle",27.6%
same,Maximal activity on each receptor (%): α1A,[2]; 0.1 μM,2.1%
same,inhibition at 0.1 µM,[2]; 0.1 μM,2.1%
same,Maximal activity on each receptor (%): α1A,[2]; 1 μM,−0.1%
same,inhibition at 1 µM,[2]; 1 μM,-1.7%
same,spontaneous alternation behavior ratio,[3],significantly improved
"Cc1ncc(CN2CCC(c3cncc(F)c3)CC2)cn1 [Example 33, 5-[4-(5-Fluoropyridin-3-yl)piperidin-1-ylmethyl]-2-methylpyrimidine]",Maximal activity on each receptor (%): α1A,[2]; 0.1 μM,0.4%
same,inhibition at 0.1 µM,[2]; 0.1 μM,-34%
same,Maximal activity on each receptor (%): α1A,[2]; 1 μM,0.85%
same,inhibition at 1 µM,[2]; 1 μM,-5.4%
Nc1ncc(CN2CCC(c3cccnc3)CC2)cn1 [Example 37],Maximal activity on each receptor (%): α1A,[2]; 0.1 μM,0.31%
same,inhibition at 0.1 µM,[2]; 0.1 μM,-22%
same,Maximal activity on each receptor (%): α1A,[2]; 1 μM,0.44%
same,inhibition at 1 µM,[2]; 1 μM,-14%
